Measurements as given in patent US20260097037A1, “FUSED RING COMPOUND HAVING GLP-1 RECEPTOR AGONIST EFFECT” (Shionogi & Co., Ltd., priority 2022, published 2026).
Read-outs that look alike come from different tables or passages of the source.

Biological target: T1, Human GLP-1 receptor stably expressing cells (hGLP-1R/CHO-K1 cells) (Homo sapiens, UniProt P43220)
T1 construct: expressed in transfected cells
Test: Measurement of GLP-1 receptor agonist activity (cAMP assay)
Format: cell-based
Conditions: for Emax: cAMP with 2 nM human GLP-1 (7-36) = 100%, DMSO only = 0%; for EC50: increase in cAMP concentration in hGLP-1R/CHO-K1 cells, 37° C. 1 hour
Outline: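 hGLP-1R/CHO-K1 cells (cryopreserved) incubated with compound and forskolin in HBSS with 0.1% BSA, IBMX and RO20-1724, 1 h at 37° C; cAMP read by HTRF. EC50 and Emax from cAMP rise, normalised to 2 nM human GLP-1 (7-36) (100%) and DMSO (0%).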

[1] = CHO-K1, maximum effect, read-out: Emax

T1 sequence (P43220 24-463): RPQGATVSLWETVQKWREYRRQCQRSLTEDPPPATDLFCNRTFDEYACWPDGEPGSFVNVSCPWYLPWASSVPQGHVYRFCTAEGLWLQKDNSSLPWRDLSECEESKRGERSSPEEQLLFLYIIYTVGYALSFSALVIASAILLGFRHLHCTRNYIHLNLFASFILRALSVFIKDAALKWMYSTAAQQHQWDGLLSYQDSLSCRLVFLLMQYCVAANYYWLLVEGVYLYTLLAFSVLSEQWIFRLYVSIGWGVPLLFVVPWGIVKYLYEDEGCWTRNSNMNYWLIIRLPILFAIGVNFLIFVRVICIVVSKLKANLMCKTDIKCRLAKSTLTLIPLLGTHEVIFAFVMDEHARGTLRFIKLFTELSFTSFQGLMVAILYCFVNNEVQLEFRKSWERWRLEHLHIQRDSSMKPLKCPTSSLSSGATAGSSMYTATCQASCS

Emax [1] [%] | EC50 [nM] | Emax (maximum effect) [%] | Structure (SMILES)
115 | 0.58 | – | C[C@H]1c2nc(OCc3ccc(Cl)cc3Cl)c(C(F)F)cc2CCN1Cc1nc2ccc(C(=O)O)nc2n1C[C@@H]1CCO1 [Compound I-100]
129 | 0.0679 | – | C[C@H]1c2nc(OCc3cc(F)c(Cl)cc3F)c(Cl)cc2CCN1Cc1nc2ccc(C(=O)O)c(F)c2n1C[C@@H]1CCO1 [Compound I-040]
130 | 0.443 | – | C[C@H]1c2nc(OCc3ccc(F)cc3)c(Cl)cc2CCN1Cc1nc2ccc(C(=O)O)cc2n1C[C@@H]1CCO1 [Compound I-023]
111 | 3.39 | – | Cc1ccc(COc2cc3c(cc2C(F)F)CCN(Cc2nc4ccc(C(=O)O)cc4n2C[C@@H]2CCO2)[C@H]3C)cc1 [Compound I-005]
88.3 | 9.31 | – | C[C@H]1c2nc(OCc3ccc(Cl)cc3F)ncc2CCN1Cc1nc2ccc(C(=O)O)cc2n1C[C@@H]1CCO1 [Compound I-080]
110 | 0.191 | – | C[C@H]1c2nc(OCc3ccc(Cl)cn3)c(C(F)F)cc2CCN1Cc1nc2c(F)cc(C(=O)O)cc2n1C[C@@H]1CCO1 [Compound I-112]
104 | 0.193 | – | C[C@H]1c2nc(NCc3ccc(Cl)cc3)c(C(F)(F)F)cc2CCN1Cc1nc2c(Cl)cc(C(=O)O)cc2n1C[C@@H]1CCO1 [Compound I-168]
129 | 0.0999 | – | C[C@H]1c2nc(OCc3ccc(C#N)c4ccoc34)c(C(F)(F)F)cc2CCN1Cc1nc2ccc(C(=O)O)cc2n1C[C@@H]1CCO1 [Compound I-143]
108 | 0.354 | – | C[C@H]1c2nc(OCc3ccc(F)cc3F)c(C(F)F)cc2CCN1Cc1nc2ccc(C(=O)O)cc2n1C[C@@H]1CCO1 [Compound I-056]
– | 0.748 | 110 | Cc1ccc(COc2nc3c(cc2Cl)CCN(Cc2nc4ccc(C(=O)O)cc4n2C[C@@H]2CCO2)[C@H]3C)cc1 [Compound I-028]
131 | 0.0303 | – | COc1cc(C(=O)O)cc2c1nc(CN1CCc3cc(C(F)F)c(OCc4ccc(Cl)cc4)nc3[C@@H]1C)n2C[C@@H]1CCO1 [Compound I-129]
124 | 0.222 | – | C[C@H]1c2nc(OCc3ccc(Cl)cc3)c(C#N)cc2CCN1Cc1nc2c(Cl)cc(C(=O)O)cc2n1C[C@@H]1CCO1 [Compound I-189]
75.7 | 886 | – | C[C@@H]1c2nc(OCc3ccc(Cl)cc3F)ncc2CCN1Cc1nc2ccc(C(=O)O)cc2n1C[C@@H]1CCO1 [Compound I-079]
109 | 0.343 | – | C[C@H]1c2nc(OCc3ccc(Cl)cc3F)c(C(F)F)cc2CCN1Cc1nc2ccc(C(=O)O)nc2n1C[C@@H]1CCO1 [Compound I-097]
136 | 0.17 | – | C[C@H]1c2nc(OCc3ccc(Cl)cc3)c(Cl)cc2CCN1Cc1nc2ccc(C(=O)O)cc2n1C[C@@H]1CCO1 [Compound I-017]
124 | 0.117 | – | C[C@H]1c2nc(OCc3c(F)cc(Cl)cc3F)c(Cl)cc2CCN1Cc1nc2ccc(C(=O)O)cc2n1C[C@@H]1CCO1 [Compound I-024]
102 | 3.6 | – | C[C@H]1c2cc(OCc3ccc(Cl)cn3)c(C(F)F)cc2CCN1Cc1nc2ccc(C(=O)O)cc2n1C[C@@H]1CCO1 [Compound I-003]
118 | 1.02 | – | C[C@H]1c2nc(OCc3ccc(F)cc3)c(C(F)F)cc2CCN1Cc1nc2ccc(C(=O)O)cc2n1C[C@@H]1CCO1 [Compound I-051]
111 | 0.965 | – | C[C@H]1c2nc(OCc3ccc(C#N)c4occc34)c(C(F)(F)F)cc2CCN1Cc1nc2ccc(C(=O)O)cc2n1C[C@@H]1CCO1 [Compound I-165]
100 | 0.0849 | – | C[C@H]1c2nc(OCc3ccc(Cl)cc3)c(Cl)cc2CCN1Cc1nc2c(F)cc(C(=O)O)cc2n1C[C@@H]1CCO1 [Compound I-082]
113 | 0.105 | – | C[C@H]1c2nc(OCc3ccc(Cl)cc3)c(C(F)F)cc2CCN1Cc1nc2ccc(C(=O)O)c(F)c2n1C[C@@H]1CCO1 [Compound I-118]
105 | 0.592 | – | C[C@H]1c2nc(OCc3ccc(F)cc3F)c(Cl)cc2CCN1Cc1nc2ccc(C(=O)O)nc2n1C[C@@H]1CCO1 [Compound I-029]

Second part, the compound before the results:

Structure (SMILES) | Emax [1] [%] | EC50 [nM] | Emax (maximum effect) [%]
COc1cc(C(=O)O)cc2c1nc(CN1CCc3cc(C(F)F)c(OCc4c(F)cc(Cl)cc4F)nc3[C@@H]1C)n2C[C@@H]1CCO1 [Compound I-134] | 128 | 0.0104 | –
COc1cc(C(=O)O)cc2c1nc(CN1CCc3cc(C#N)c(OCc4cc(F)c(Cl)cc4F)nc3[C@@H]1C)n2C[C@@H]1CCO1 [Compound I-146] | 115 | 0.0293 | –
Cc1cc(-c2cc(C(=O)O)cc3c2nc(CN2CCc4cc(C(F)(F)F)c(OCc5ccc(Cl)cc5F)nc4[C@@H]2C)n3C[C@@H]2CCO2)on1 [Compound I-179] | 96.3 | 1.46 | –
C[C@H]1c2nc(NCc3ncc(Cl)cc3F)c(C(F)(F)F)cc2CCN1Cc1nc2c(F)cc(C(=O)O)cc2n1C[C@@H]1CCO1 [Compound I-191] | 114 | 0.266 | –
C[C@H]1c2cc(OCc3c(F)cc(Cl)cc3F)c(C(F)F)cc2CCN1Cc1nc2ccc(C(=O)O)cc2n1C[C@@H]1CCO1 [Compound I-012] | 108 | 1.25 | –
C[C@H]1c2nc(NCc3c(F)cc(Cl)cc3F)c(C(F)(F)F)cc2CCN1Cc1nc2c(Cl)cc(C(=O)O)cc2n1C[C@@H]1CCO1 [Compound I-172] | 106 | 0.0353 | –
O=C(O)c1ccc2nc(C3CC34CCc3cc(C(F)(F)F)c(OCc5ccc(Cl)cc5F)cc3C4)n(C[C@@H]3CCO3)c2c1 (stereo partly shown) [Compound I-104] | 75.3 | 514 | –
COc1cc(C(=O)O)cc2c1nc(CN1CCc3cc(C(F)F)c(OCc4ccccc4Cl)nc3[C@@H]1C)n2C[C@@H]1CCO1 [Compound I-130] | 141 | 0.108 | –
C[C@H]1c2nc(NCc3ccc(Cl)cc3F)c(C(F)(F)F)cc2CCN1Cc1nc2c(Cl)cc(C(=O)O)cc2n1C[C@@H]1CCO1 [Compound I-151] | 92.7 | 0.0738 | –
C[C@H]1c2nc(OCc3ccc(F)cc3F)c(C(F)F)cc2CCN1Cc1nc2ccc(C(=O)O)c(F)c2n1C[C@@H]1CCO1 [Compound I-121] | 119 | 0.148 | –
C[C@H]1c2nc(NCc3ccc(Cl)cc3Cl)c(C(F)(F)F)cc2CCN1Cc1nc2c(F)cc(C(=O)O)cc2n1C[C@@H]1CCO1 [Compound I-166] | 109 | 0.205 | –
C[C@H]1c2nc(OCc3c(F)cc(Cl)cc3F)c(C#N)cc2CCN1Cc1nc2c(Cl)cc(C(=O)O)cc2n1C[C@@H]1CCO1 [Compound I-185] | 122 | 0.0569 | –
C[C@H]1c2nc(OCc3ccccc3Cl)c(C(F)F)cc2CCN1Cc1nc2ccc(C(=O)O)nc2n1C[C@@H]1CCO1 [Compound I-099] | 106 | 2.55 | –
C[C@H]1c2nc(OCc3ccc(C#N)cc3F)c(C(F)F)cc2CCN1Cc1nc2ccc(C(=O)O)c(F)c2n1C[C@@H]1CCO1 [Compound I-127] | 121 | 0.104 | –
C[C@H]1c2nc(OCc3ccc(Cl)c4ccoc34)c(C#N)cc2CCN1Cc1nc2c(Cl)cc(C(=O)O)cc2n1C[C@@H]1CCO1 [Compound I-180] | 111 | 0.28 | –
C[C@H]1c2nc(OCc3cc(F)c(Cl)cc3F)c(C(F)F)cc2CCN1Cc1nc2c(F)cc(C(=O)O)cc2n1C[C@@H]1CCO1 [Compound I-114] | 113 | 0.0604 | –
C[C@H]1c2nc(OCc3ccc(Cl)cn3)c(C(F)F)cc2CCN1Cc1nc2ccc(C(=O)O)c(F)c2n1C[C@@H]1CCO1 [Compound I-123] | 127 | 0.275 | –
COc1cc(C(=O)O)cc2c1nc(CN1CCc3cc(C(F)F)c(OCc4ccc(C#N)cc4F)nc3[C@@H]1C)n2C[C@@H]1CCO1 [Compound I-135] | 134 | 0.0165 | –
C[C@H]1c2nc(NCc3ccc(C#N)cc3F)c(C(F)(F)F)cc2CCN1Cc1nc2c(F)cc(C(=O)O)cc2n1C[C@@H]1CCO1 [Compound I-193] | 110 | 0.211 | –
C[C@H]1c2c(cc(C(F)(F)F)c3c2O[C@](C)(c2ccc(Cl)cc2F)O3)CCN1Cc1nc2ccc(C(=O)O)cc2n1C[C@@H]1CCO1 [Compound I-046] | 112 | 669 | –
C[C@H]1c2cc(OCc3cc(F)c(Cl)cc3F)c(C(F)F)cc2CCN1Cc1nc2ccc(C(=O)O)cc2n1C[C@@H]1CCO1 [Compound I-010] | 117 | 1.99 | –
C[C@H]1c2nc(NCc3ccc(Cl)cn3)c(C(F)(F)F)cc2CCN1Cc1nc2c(F)cc(C(=O)O)cc2n1C[C@@H]1CCO1 [Compound I-196] | 108 | 0.611 | –
